Our source for the Proliferation values is ChEMBL document CHEMBL5724564, “Patient-derived NASH model to assess the effects of chemical probes on hepatocyte regenerations” (2024).

The subject of this assay is Hepatocyte spheroids. Briefly: Cell viability is assessed by cellular ATP assay using CellTiter-Glo Luminescent kit. Viability is expressed as average RLU from biological replicates and normalized to negative control.Toxicity is defined as those with normalized ATP significantly less than 80 percent of the negative control. Format: functional, Homo sapiens. The arrangement: unit not given here. In general terms: In ATP-based viability assays light output follows the ATP content of the culture.

The compound `CC(C)(C)S(=O)(=O)c1cc2c(Nc3ccc4scnc4c3)ncnc2cc1OCCO` yielded a Proliferation of 0.5541.

Take `Nc1cc(N)c(NC(=O)Nc2ccc(C(=O)N[C@@H](CCC(=O)O)C(=O)O)cc2)c(=O)[nH]1`: the Proliferation is given as 0.01013.

Take `CC(C)Oc1ccc(-c2c[nH]cc2CN(C)CCN)cc1`: the Proliferation (Concentration range 10nM-10uM) amounted to 0.2793.

The compound `CO[C@H]1CNC[C@@H](OCC2CCC(F)(F)CC2)[C@@H]1Nc1ncc(-c2cncc(C)c2)c2cc(C)c(=O)[nH]c12` displayed a Proliferation of 0.02957.

`O=c1nc(-c2ccccn2)sc2ccccc12` [BTZO-1] yielded a Proliferation of 0.08275.

`CN1C[C@H](Nc2cnn(C)c(=O)c2Br)C[C@H](c2ccccc2)C1`: the Proliferation is 0.003884.

Turning to `CCN(CC)S(=O)(=O)Nc1cccc(-c2ccc3c(NC(=O)C4CC4)n[nH]c3c2)c1`, the Proliferation stood at 0.0004.

In turn, `COc1cc2c(NC3CCN(C(C)C)CC3)nc(C3CCCCC3)nc2cc1OCCCN1CCCC1` registered a Proliferation (Concentration range 5nM-5uM) of 0.05128.

On to `COc1cccc(CNC(=O)c2nc3scc(COCc4ccc(C(=O)O)cc4)c3c(=O)[nH]2)c1` [T-26c], for which the Proliferation turned out to be 0.5771.

`CC(C)N(CCCNC(=O)Nc1ccc(C(C)(C)C)cc1)C[C@H]1O[C@@H](n2cc(Br)c3c(N)ncnc32)[C@H](O)[C@@H]1O` registered a Proliferation (Concentration range 10nM-10uM) of 0.01234.

The compound `COc1cc(C(=O)N2CC[C@@H](O)[C@@H](N)C2)cc2nc(-c3cc4ccccc4n3CC3CC3)n(C)c12.Cl` returned a Proliferation (Concentration range 10nM-10uM) of 0.09717.

Regarding `COc1ccc(CCc2nc3cc(-c4c(C)noc4C)ccc3n2C[C@H](C)N2CCOCC2)cc1Cl`, the Proliferation (Concentration range 3nM-3uM) stood at 0.2022.

As for `CN(C)[C@H]1CN(C2CCc3cccc(F)c32)C[C@@H]1c1ccc(N2CCN(S(C)(=O)=O)CC2)cc1` (stereo not given in full), the Proliferation turned out to be 0.

With `CCCCN(CCCC)C(=O)CN1C[C@@H](c2cc(OC)c3c(c2)OCO3)[C@H](C(=O)O)[C@H]1CC(C)(C)CCC.Cl`, the Proliferation was 0.1508.

`COc1ccccc1-c1cc(Nc2cccc(CS(N)(=O)=O)c2)ncn1` came in with a Proliferation of 0.2719.

`Cn1cc(CCn2cnc(-c3cnn(C)c3)c2-c2ccc(C#N)cc2)cn1` returned a Proliferation (Concentration range 5nM-5uM) of 0.05329.

The compound `CN(C)C(=O)/C(C#N)=C/c1ccc(-c2nc3cnc4[nH]ccc4c3n2C2CCCCC2)o1` had a Proliferation of 0.07463.

`CC(=O)Nc1cccc(-n2c(=O)n(C3CC3)c(=O)c3c(Nc4ccc(I)cc4F)n(C)c(=O)c(C)c32)c1` [TRAMETINIB] returned a Proliferation of 0.

`NC(=O)c1ccc(N(C(N)=O)c2c(F)cccc2F)nc1-c1ccc(F)cc1F` [VX-702] showed a Proliferation of 0.02591.

The compound `CN(C)C(=O)Cn1cc(-c2nc([C@@](C)(c3ccc(-c4cnc(N)nc4)cc3)C3CC3)no2)cn1` [BI 665915] returned a Proliferation of 0.119.

The compound `Cn1cc(-c2ccc3c(c2)CCN3C(=O)Cc2cccc(C(F)(F)F)c2)c2c(N)ncnc21` registered a Proliferation of 0.03291.

As for `Cc1c(NC(=O)c2cc(C(N)=O)nc3cc(F)ccc23)c(C(F)(F)F)nn1Cc1ccc(C#N)cc1` [BAY-876], the Proliferation was 0.01262.

`CCC(=O)N[C@H]1CC[C@@H](C(=O)N(C)c2ccc(-c3nc4ccccc4o3)cc2)C1` [BI 99179]: the Proliferation came out at 0.7724.

`C[C@@H]1CCN(C(=O)CC#N)C[C@@H]1N(C)c1ncnc2[nH]ccc12.O=C(O)CC(O)(CC(=O)O)C(=O)O` [TOFACITINIB CITRATE]: the Proliferation is given as 0.01527.

`COc1cc(Nc2ccnc3ccc(Br)cc23)cc(OC)c1OC` came in with a Proliferation of 0.5391.

The compound `Cc1cc(Nc2nccc(C)n2)cc(-c2cnc([C@@]3(O)CC[C@H](C(=O)O)C(C)(C)C3)s2)c1` [MRL-SYKi] displayed a Proliferation of 0.

In turn, `Cl.Cl.NC1(c2ccc(-c3nc4ccn5c(=O)[nH]nc5c4cc3-c3ccccc3)cc2)CCC1` yielded a Proliferation of 0.5443.

With `O=C(NCC(=O)N1CCCC1)Nc1ccc2cnccc2c1`, the Proliferation (Concentration range 10nM-10uM) was 0.06734.

Turning to `Cc1c(NC(=O)c2ccc(C(C)(C)C)cc2)cccc1-c1cn(C)c(=O)c(Nc2ccc(C(=O)N3CCOCC3)cc2)n1`, the Proliferation is recorded as 0.2187.

With `O=C(O)Cc1ccccc1Nc1c(Cl)cccc1Cl` [DICLOFENAC], the Proliferation was determined as 0.2575.

As for `COc1ccccc1C(=O)Nc1cc2c(cc1N1CCNCC1C)n(C)c(=O)n2C` (stereo not given), the Proliferation is given as 0.1835.

For the compound `Cc1sc2c(c1C)C(c1ccc(Cl)cc1)=NC(CC(=O)OC(C)(C)C)c1nnc(C)n1-2` (stereo not given), where the note is “Concentration range 1nM-1uM”, the Proliferation is on record as 0.001662.

`Clc1cc2c(NC3CCCC3)nnc(-c3ccncc3)c2cc1Cl`: the Proliferation (Concentration range 10nM-10uM) is 0.02485.

For `O=C(c1ccc2[nH]ccc2c1)N1CCN(S(=O)(=O)c2ccc3[nH]c(=O)oc3c2)CC1`, the Proliferation amounted to 0.6071.

In turn, `CCCCN(CCCC)C(=O)CN1C[C@H](c2cc(OC)c3c(c2)OCO3)[C@@H](C(=O)O)[C@@H]1CC(C)(C)CCC.Cc1ccc(S(=O)(=O)O)cc1` had a Proliferation of 0.6131.

Regarding `CS(=O)(=O)Nc1cc([N+](=O)[O-])ccc1OC1CCCCC1`, the Proliferation came out at 0.6769.

On to `CNc1nc(-c2ccc3c(N)n[nH]c3c2)cc(N2C[C@@H](C(=O)NC3CCCCC3)CC[C@H]2C)n1`, for which the Proliferation came out at 0.1604.

Consider `CC(C)c1ccc(Nc2nccc(-c3cnn4ncccc34)n2)cc1` [GW805758X], for which the Proliferation was found to be 0.2702.

On to `CN(Cc1cnc2nc(N)nc(N)c2n1)c1ccc(C(=O)N[C@@H](CCC(=O)O)C(=O)O)cc1` [METHOTREXATE], for which the Proliferation came to 0.002627.

For the setting “Concentration range 10nM-10uM”, `O=C(NC[C@H](O)CN1CCc2ccccc2C1)c1ccnc(NC2CCC2)c1` showed a Proliferation of 0.0004.

`Nc1nc(NC2CC2)cc(-c2cccc(Cl)c2Cl)n1` yielded a Proliferation of 0.05031.

`CNC(=O)c1ccc(Nc2ncc(C(F)(F)F)c(NCc3nccnc3N(C)S(C)(=O)=O)n2)cc1` [DEFACTINIB]: the Proliferation is reported as 0.1091.

`CCn1c(-c2nonc2N)nc2c(C#CC(C)(C)O)ncc(OCC3CCCNC3)c21` (stereo not given) had a Proliferation of 0.006402.

`O=C1c2ccc(Nc3ccc(F)cc3F)cc2CCc2ccc(OC[C@H](O)CO)cc21` [Skepinone-L]: the Proliferation was 0.2651.

On to `CCN(C(=O)CO)[C@H]1CN(/C(=N\C#N)Nc2cccc(OC(F)F)c2)N=C1c1ccc(Cl)c(Cl)c1`, for which, where the note is “Concentration range 10nM-10uM”, the Proliferation is 0.05466.

In turn, `Cn1cc(-c2ccc3nnc(Sc4ccc5ncccc5c4)n3n2)cn1` [SGX-523] had a Proliferation of 0.3569.

With `Cc1cn(CCN2CCN(c3ccccc3-c3cc(C#N)cc(C(=O)NCCCN4CCCC4)c3)CC2)c2ccccc12`, the Proliferation (Concentration range 10nM-10uM) is reported as 0.05285.

`O=C(N1CCS(=O)(=O)CC1)N1C[C@H](c2ccc(OC(F)(F)F)cc2)C[C@H](c2nc(C3CC3)no2)C1` [BAY-386] displayed a Proliferation of 0.02871.

`CCOCCn1cc(C(=O)Nc2ccc(-n3nc(-c4cccnc4)cc3C(F)(F)F)cn2)ccc1=O` [BI 1935] gave a Proliferation of 0.3766.

`CC(=O)Nc1c(C(C)=O)c(=O)n(C)c2nc(-c3ccc(Cl)cc3Cl)c(-c3ccc(Cl)cc3)cc12` [NAPHTHYRIDINONE] yielded a Proliferation of 0.005874.

Compound `CCOC(=O)c1c(/C(C#N)=C\N)c2ccc(Cl)c(Cl)c2n1C` came in with a Proliferation of 0.874.

Take `O=C(/C=C/N1C[C@H]2C[C@@H]1CN2c1ccccn1)c1ccccc1O`: where the note is “Concentration range 10nM-10uM”, the Proliferation came out at 0.02966.

Take `O=C(Nc1ccc(I)cc1)N1CCC(n2c(=O)[nH]c3c(Br)cccc32)CC1`: the Proliferation turned out to be 0.001093.

In turn, `COc1cc(C#N)ccc1S(=O)(=O)Nc1ccc2c(c1)cc(C)c(=O)n2C` showed a Proliferation (Concentration range 10nM-10uM) of 0.0004.

`CC(=O)C1=C(C)N(c2cccc(C(F)(F)F)c2)C(=O)N[C@@H]1c1ccc(C#N)nc1` [BAY-678] displayed a Proliferation of 0.03291.

Take `Cl.O=C([C@@H](Cc1cccc(C(F)(F)F)c1)NS(=O)(=O)c1cc(F)c2c(c1)CCNC2)N1CCCC1`: the Proliferation (Concentration range 10nM-10uM) amounted to 0.01564.

As to `O=C(O)[C@H]1[C@H](Cn2nnc3ccccc3c2=O)CC[C@@H]1C(=O)c1ccc(OCCC2CCOCC2)cc1` [BAY-7598], the Proliferation amounted to 0.03535.

As to `O=C(Nc1ccc2[nH]nc(-c3ccncc3)c2c1)[C@@H]1CCN(CC(=O)N2CCN(c3ccc(-c4ncccn4)cc3)CC2)C1`, the Proliferation is 0.03313.

For `CNCCN1CCC(OCc2ccccc2)CC1`, the Proliferation (Concentration range 10nM-10uM) is 0.406.

For `COc1ccccc1C(=O)Nc1cc2c(cc1N1CCCC1)n(C)c(=O)n2C`, the Proliferation is 0.003878.

Regarding `CC(=O)c1cc(-c2cc(C(=O)NC3CC3)ccc2C)c2ncccn12`, the Proliferation stood at 0.01914.

In turn, `Cc1nnc2c3ccccc3c(N[C@@H](C)[C@H](c3ccccc3)N(C)C)nn12` came in with a Proliferation of 0.0435.

With `CNCCN1CCC(c2cc(CN(C)C(=O)c3cccc(Oc4ccccc4)c3)ccn2)CC1`, the Proliferation is reported as 0.03291.

Compound `COc1cc2c(NC3CCN(C(C)C)CC3)nc(N3CCC(F)(F)CC3)nc2cc1OCCCN1CCCC1` had a Proliferation (Concentration range 5nM-5uM) of 0.008491.

Take `C[C@@H](NC(=O)Nc1cc2[nH]ncc2c(CO)n1)c1ccccc1` [ERKi]: the Proliferation was 0.06922.
